This is an account of results in ChEMBL document CHEMBL1127184, “Preparation of the enantiomers of the analgesic E-3710” (1993).

Common to all, as to format: functional
In assay [1] the test system is Mus musculus. Put plainly: Analgesic activity by writhing test in mice after intraveneous administration. Particulars: iv. For orientation: In writhing tests, fewer writhes than in controls are read as antinociception.
For assay [2], the system named is Mus musculus. Put plainly: Analgesic activity by writhing test in mice after peroral administration. The conditions noted are these: po.
Assay [3] concerns Mus musculus. Put plainly: Analgesic activity by writhing test in mice after subcutaneous administration. The conditions noted are these: sc.

In the case of `CN(C)CCO[C@@H](c1ccccc1)c1ccnn1C`, the ED50 (as a rule, the midpoint of the dose-response relation) in the assay on Mus musculus [1] worked out at 28 mg/kg; with Mus musculus [2], 67 mg/kg; in the assay with Mus musculus [3], 127 mg/kg.
With `O=C([O-])Cc1ccccc1Nc1c(Cl)cccc1Cl.[Na+]` [DICLOFENAC SODIUM], the ED50 with Mus musculus [2] was determined as 87 mg/kg.
`CN(C)CCOC(c1ccccc1)c1ccnn1C` (racemic) [CIZOLIRTINE]: the ED50 in the assay with Mus musculus [1] turned out to be 16 mg/kg; in the assay with Mus musculus [2] it was 56 mg/kg; in the assay with Mus musculus [3], 70 mg/kg.
Consider `CN(C)CCO[C@H](c1ccccc1)c1ccnn1C`, for which the ED50 in the assay on Mus musculus [1] worked out at 13 mg/kg; in the assay with Mus musculus [2] it was 37 mg/kg; in the assay on Mus musculus [3] it was 21 mg/kg.
